Source: the supplement of paper PMC12513837
± gives the standard deviation of the averaged measurements.

These test systems were tested with CC(=O)N1CCc2c(c(N3CCCc4cc(-c5cnn(C)c5)c(C(F)F)cc43)nn2C2CCC(CN3CCN(c4ccc5c(c4)C(=O)N(C4CCC(=O)NC4=O)C5=O)CC3)CC2)C1 [CBPD-409] (assay: AUC of viability dose-response curve (relative to vehicle, 8 doses up to 10 µM) (fraction); higher = less sensitive (more viable); extreme values may be limits of the assay).
Procedure: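 PRISM multiplexed pooled barcoded cell line viability screen at the Broad Institute, 887 cancer cell lines treated with CBPD-409 (p300/CBP PROTAC degrader) at 8 concentrations in threefold dilution, top dose 10 µM. The read-out is the area under the dose-response curve of relative viability versus vehicle (n=3). AUC < 0.3 is called strongly sensitive and AUC > 0.8 resistant.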

Point of comparison: SUSA_TESTIS, “AUC of viability dose-response curve” value 0.578. Against it:
- SNU182_LIVER — lower, 0.274
- SNU201_CENTRAL_NERVOUS_SYSTEM — lower, 0.382
- SUDHL4_HAEMATOPOIETIC_AND_LYMPHOID_TISSUE — higher, 0.958
- GSS_STOMACH — lower, 0.349
- ACHN_KIDNEY — higher, 0.807
- KMCH1_BILIARY_TRACT — higher, 0.96
- BEN_LUNG — lower, 0.562
- CAS1_CENTRAL_NERVOUS_SYSTEM — higher, 0.665
- SKGI_ENDOMETRIUM — higher, 1
- CORL105_LUNG — higher, 0.747
- SKNO1_HAEMATOPOIETIC_AND_LYMPHOID_TISSUE — lower, 0.247
- NUDHL1_HAEMATOPOIETIC_AND_LYMPHOID_TISSUE — higher, 0.67
- HL60_HAEMATOPOIETIC_AND_LYMPHOID_TISSUE — lower, 0.516
- HCT15_LARGE_INTESTINE — lower, 0.354
- SKHEP1_LIVER — higher, 1
- SNU216_STOMACH — higher, 1
- NCIH82_LUNG — higher, 1
- OC314_OVARY — higher, 0.619
- ONS76_CENTRAL_NERVOUS_SYSTEM — higher, 0.922 ± 0.11
- SAOS2_BONE — lower, 0.466
- COV318_OVARY — higher, 0.899
- JHH4_LIVER — higher, 0.997
- OCILY19_HAEMATOPOIETIC_AND_LYMPHOID_TISSUE — higher, 0.725
- GI1_CENTRAL_NERVOUS_SYSTEM — higher, 0.602
- KKU213_BILIARY_TRACT — higher, 0.767
- KMS11_HAEMATOPOIETIC_AND_LYMPHOID_TISSUE — lower, 0.497
- SNGM_ENDOMETRIUM — lower, 0.527
- SF539_CENTRAL_NERVOUS_SYSTEM — higher, 1
- LS_AUTONOMIC_GANGLIA — lower, 0.248
- OCIAML5_HAEMATOPOIETIC_AND_LYMPHOID_TISSUE — lower, 0.461
- KURAMOCHI_OVARY — higher, 0.967
- WSUDLCL2_HAEMATOPOIETIC_AND_LYMPHOID_TISSUE — lower, 0.505
- FTC238_THYROID — higher, 0.734
- L82_HAEMATOPOIETIC_AND_LYMPHOID_TISSUE — lower, 0.44
- MG63_BONE — higher, 1
- NCIH441_LUNG — lower, 0.558
- HDQP1_BREAST — higher, 0.853
- BHY_UPPER_AERODIGESTIVE_TRACT — higher, 0.851
- MON_SOFT_TISSUE — lower, 0.486
- KYSE410_OESOPHAGUS — higher, 0.901
- CAKI1_KIDNEY — higher, 0.644
- MOLT16_HAEMATOPOIETIC_AND_LYMPHOID_TISSUE — lower, 0.445
- SNU685_ENDOMETRIUM — higher, 1
- BDCM_HAEMATOPOIETIC_AND_LYMPHOID_TISSUE — lower, 0.431
- HCC1937_BREAST — higher, 0.957
- HPAC_PANCREAS — higher, 1
- 42MGBA_CENTRAL_NERVOUS_SYSTEM — lower, 0.485
- SW1990_PANCREAS — higher, 1
- RO82W1_THYROID — higher, 1
- JVM3_HAEMATOPOIETIC_AND_LYMPHOID_TISSUE — higher, 1
- HEC6_ENDOMETRIUM — higher, 0.645
- HCC78_LUNG — higher, 0.807
- UW228_CENTRAL_NERVOUS_SYSTEM — higher, 1
- IGR37_SKIN — lower, 0.229
- UMUC10_URINARY_TRACT — lower, 0.511
- NCIH157DM_LUNG — lower, 0.559
- 93T449_SOFT_TISSUE — higher, 1
- KMS18_HAEMATOPOIETIC_AND_LYMPHOID_TISSUE — lower, 0.466
- SNU1105_CENTRAL_NERVOUS_SYSTEM — lower, 0.577
- JHOS2_OVARY — lower, 0.472
- LS1034_LARGE_INTESTINE — lower, 0.295
- SKUT1_SOFT_TISSUE — higher, 0.609
- NCIH1915_LUNG — higher, 0.697
- MIAPACA2_PANCREAS — higher, 1
- KYO1_HAEMATOPOIETIC_AND_LYMPHOID_TISSUE — higher, 0.628
- C33A_CERVIX — higher, 1
- BICR18_UPPER_AERODIGESTIVE_TRACT — higher, 1
- LS180_LARGE_INTESTINE — higher, 0.961
- IHH4_THYROID — higher, 0.762
- COLO783_SKIN — higher, 0.837
- TE617T_SOFT_TISSUE — higher, 0.851
- CAL62_THYROID — lower, 0.321
- SW620_LARGE_INTESTINE — lower, 0.559
- RL952_ENDOMETRIUM — higher, 0.996
- CHLA15_AUTONOMIC_GANGLIA — lower, 0.551
- NCIH1623_LUNG — higher, 0.92
- 253JBV_URINARY_TRACT — higher, 1
- PK1_PANCREAS — higher, 0.685
- YSCCC_BILIARY_TRACT — higher, 0.853
- LS411N_LARGE_INTESTINE — higher, 0.988
- T3M5_THYROID — higher, 0.776
- NCIH1299_LUNG — higher, 0.79
- KNS62_LUNG — higher, 0.953
- OC316_OVARY — lower, 0.486
- KMRC1_KIDNEY — higher, 1
- H4_CENTRAL_NERVOUS_SYSTEM — higher, 0.625
- CORL88_LUNG — higher, 0.612
- 22RV1_PROSTATE — lower, 0.189
- HT29_LARGE_INTESTINE — higher, 0.633
- HCC827_LUNG — higher, 0.731
- U2940_HAEMATOPOIETIC_AND_LYMPHOID_TISSUE — higher, 1
- SW1783_CENTRAL_NERVOUS_SYSTEM — higher, 0.884
- MM1S_HAEMATOPOIETIC_AND_LYMPHOID_TISSUE — lower, 0.328
- U266B1_HAEMATOPOIETIC_AND_LYMPHOID_TISSUE — higher, 0.784
- HOTHC_THYROID — higher, 0.845
- RERFLCAD2_LUNG — higher, 0.946
- A375_SKIN — lower, 0.47
- SCC3_HAEMATOPOIETIC_AND_LYMPHOID_TISSUE — higher, 1
- CAL27_UPPER_AERODIGESTIVE_TRACT — higher, 0.961
- HUO9_BONE — higher, 0.679
- KOPN8_HAEMATOPOIETIC_AND_LYMPHOID_TISSUE — higher, 0.704
- M059K_CENTRAL_NERVOUS_SYSTEM — higher, 0.673
- KYSE140_OESOPHAGUS — higher, 1
- HLF_LIVER — higher, 1
- DAOY_CENTRAL_NERVOUS_SYSTEM — higher, 0.958 ± 0.059
- NCIH841_LUNG — higher, 0.855
- HEC265_ENDOMETRIUM — higher, 0.695
- ECC2_BILIARY_TRACT — lower, 0.402
- KD_SOFT_TISSUE — lower, 0.299
- HCC15_LUNG — higher, 1
- MDAMB453_BREAST — lower, 0.401
- HUH6_LIVER — higher, 1
- TASK1_CENTRAL_NERVOUS_SYSTEM — lower, 0.342
- OCIAML2_HAEMATOPOIETIC_AND_LYMPHOID_TISSUE — lower, 0.551
- BT12_SOFT_TISSUE — higher, 0.706
- SNU81_LARGE_INTESTINE — higher, 0.767
